Assay results published in patent US20070213393A1, “COMPOSITIONS AND METHODS FOR TREATING INFLAMMATORY CONDITIONS UTILIZING PROTEIN OR POLYSACCHARIDE CONTAINING ANTI-MICROTUBULE AGENTS” (ANGIOTECH INTERNATIONAL AG, priority 2001, published 2007).
Converted amounts (≈) assume the structure as drawn. Values belong to the compound of their own block, whether it stands above or below them.

Tests used:
[1] = Compatibility of co-solvent carrier with hyaluronic acid hydrogel (visually observed turbidity); assay type: physicochemical; conditions: solvent added in 200 μl aliquots to 2 ml gel of 20 mg/ml hyaluronic acid in water; maximum added 5 ml
Procedure: Co-solvent systems were prepared by the addition of water miscible organic solvents to a hyaluronic acid (HA) gel containing 20 mg/ml hyaluronic acid in water. The organic solvent was added with stirring in aliquots of 200 μl. After the addition of each aliquot, the mixture was allowed to stir for several minutes and observed for signs of turbidity or rapidly changing viscosity. At the first sign of visually observed turbidity, the volume of organic solvent added was noted and the ratio of co-solvent to water calculated. In the event that turbidity was not observed the maximum amount of solvent added was 5 ml to 2 ml of gel.

[2] = physchem; conditions: aqueous with cosolvent or surfactant or cyclodextrin, thermodynamic from solid
Procedure: After determining suitability in this manner, co-solvent systems may be further assessed in terms of biocompatibility. Solubility was determined as follows:
To a 1 ml aliquot of a co-solvent system described by the ratio of organic solvent to water was added precisely to 5 and 10 mg±10% paclitaxel. The mixtures were equilibrated at room temperature for 16 hours and observed for clarity and particulates in the liquid.

[3] = system: neutrophil; conditions: cited from earlier work
[4] = system: T-cell; conditions: cited from earlier work
[5] = system: synoviocytes; conditions: cited from earlier work
[6] = system: AP-1; conditions: via reduced AP-1 binding to DNA; cited from earlier work
[7] = system: collagen induced arthritis in an animal model; conditions: cited from earlier work
[8] = system: normal chondrocytes and non-proliferating synoviocytes; conditions: cited from earlier work

Max. amt. added to HA Gel without turbidity [1]: >5 ml in 2 ml
Compound: C[S+](C)[O-] [Dimethylsulfoxide]

Max. amt. added to HA Gel without turbidity [1]: 4 ml in 2 ml
Compound: CCO [Ethanol]

The next lines start with the compound.

Compound: CCOCCOCCO [Ethoxydiglycol]
Max. amt. added to HA Gel without turbidity [1]: 2 ml in 2 ml

Compound: CN1CCCC1=O [N-methylpyrrolidone]
Max. amt. added to HA Gel without turbidity [1]: >5 ml in 2 ml

Compound: CC(=O)O[C@H]1C(=O)[C@@]2(C)[C@H]([C@H](OC(=O)c3ccccc3)[C@]3(O)C[C@H](OC(=O)[C@H](O)[C@@H](NC(=O)c4ccccc4)c4ccccc4)C(C)=C1C3(C)C)[C@]1(OC(C)=O)CO[C@@H]1C[C@@H]2O [paclitaxel]
solubility at 16 h ([2]; Dimethylsulfoxide:water co-solvent mixture): < 5000 µg/mL
solubility at 16 h ([2]; Ethanol:water co-solvent mixture): 5000 to 10000 µg/mL (≈ 5.86 to 11.7 mM)
solubility at 16 h ([2]; Ethoxydiglycol:water co-solvent mixture): < 5000 µg/mL
solubility at 16 h ([2]; N-methylpyrrolidone:water co-solvent mixture): > 10000 µg/mL
solubility at 16 h ([2]; PEG 200:water co-solvent mixture): 5000 to 10000 µg/mL (≈ 5.86 to 11.7 mM)
neutrophil activation [3]: inhibits
T-cell function [4]: inhibits
T-cell response to stimuli [4]: decreases
apoptosis in synoviocytes [5]: induces
proliferation of synoviocytes [5]: prevents
AP-1 transcription activity [6]: inhibits
collagen induced arthritis [7]: inhibits
toxicity to non-proliferating cells [8]: non-toxic
